Assay results taken from patent US8952036B2, “Benzoic acid derivative MDM2 inhibitor for the treatment of cancer” (Amgen Inc., priority 2013, dated 2015).
“Also recorded” adds a separate entry of the source. Read-outs that look alike come from different tables or passages of the source.

Experiments:
[1] = Human Hepatocyte Intrinsic Clearance Assay; settings: human, cryopreserved human hepatocytes pooled from 20 donors
Experimental: (§4) Cryopreserved human hepatocytes pooled from 20 donors (Celsis-In Vitro Technologies, Baltimore, Md.) were used to determine the intrinsic clearance of the Example compounds. […] At 0, 5, 15, 30, 60 and 90 minutes, aliquots of incubation mixture were removed from the incubator, and quenched with acetonitrile containing 0.1% (v/v) formic acid and internal standard (7-hydroxy-4-trifluoromethylcoumarin). Samples were then centrifuged at 5700 rpm (6100 g) at 4° C. for 10 minutes. Supernatants were transferred to a sample plate, mixed with equal volume of water containing 0.1% formic acid, and analyzed using LC-MS/MS.
(§5) The LC-MS/MS system for sample analysis consisted of a reverse phase UHPLC (Shimadzu Model Nexera LC-30AD, Shimadzu Scientific Instruments, Inc, Columbia, Md.) interfaced with an API4000 triple quadruple mass spectrometer operating in negative ion mode (Applied Biosystems, Inc., Foster City, Calif.). Chromatographic separation was achieved using a Phenomenex Kinetex Luna C18 column (Phenomenex, Torrance, Calif.) (2×50 mm, 2.6 μm) maintained at 55° C. with a mobile phase flow rate of 1.2 mL/min. The mobile phase consisted of 0.1% formic acid in water (A) and 0.1% formic acid in acetonitrile (B).

[2] = tested on: Cryopreserved human hepatocytes; test: Human Hepatocyte Intrinsic Clearance Assay; settings: for human hepatocyte clearance (comparison): comparison between Examples, in words
Experimental: as §4, §5

CYP3A4 = settings: human, 48 h; for CYP3A4 mRNA induction: hepatocytes
Source text: (§1) Human Hepatocyte CYP1A2, CYP2B6, and CYP3A4 Induction Assay
(§2) Materials. […] Insulin-transferrin-selenium supplement (ITS), penicillin-streptomycin-L-glutamine supplement (PSG), fetal bovine serum (FBS), phosphate-buffered saline (PBS), cryopreserved hepatocyte recovery medium (CHRM), and three individual-donor lots of cryopreserved adult human hepatocytes were obtained from Life Technologies (Grand Island, N.Y.). Collagen I-precoated 24-well plates and hydroxybupropion were acquired from Becton Dickinson Labware (Bedford, Mass.). Branched DNA (b-DNA) probe sets for human CYP1A2, CYP2B6, CYP3A4, and 18S rRNA and the Panomics Discovery XL Kit were purchased from Affymetrix Inc. (Santa Clara, Calif.).
In vitro Methods. […] Individual lots were plated in collagen-coated 24-well plates with approximately 0.38×10^6 cells/well. […] After the attachment period, the plating medium and unattached cells were removed by aspiration and 37° C. HMM was added to each well (0.5 mL/well), and the cells were incubated overnight. On Day 2, the medium was aspirated and fresh 37° C. HMM was reapplied to the cells for an overnight acclimation period. […] The Example compounds to be tested were prepared in DMSO stock solutions resulting in final incubation concentrations of 0.1% DMSO. Example compound treatment was maintained for a total of 48 hours. On Day 5, the medium was aspirated, and the hepatocytes were gently washed one time with KHB (37° C., pH 7.4). The KHB was removed, and a second application of KHB was administered (0.5 mL/well). The hepatocytes were placed back into the incubator and allowed to acclimate to the KHB for 10 minutes. P450 enzyme activities were subsequently determined by the addition of marker substrates phenacetin (100 μM, CYP1A2 probe substrate, 30-minute incubation) bupropion hydrochloride (100 μM, CYP2B6 probe substrate, 20-minute incubation), and testosterone (200 μM, CYP3A4 probe substrate, 14-minute incubation) which were dissolved in KHB (37° C., pH 7.4, 0.5 mL/well). After the substrate incubation periods, the buffers were collected and stored at −80° C. until analyzed. Hepatocytes used for mRNA analysis were washed once in PBS (0.5 mL/well, 25° C., containing calcium and magnesium) and protocol-prepared b-DNA lysis buffer was added to each well (0.5 mL/well). The hepatocytes were lysed by gently pipetting the lysis buffer up and down five times, and the plates were stored at −80° C. until analysis.
P450 mRNA Analysis. CYP1A2, CYP2B6, and CYP3A4 mRNA content was determined with branched DNA (b-DNA) signal amplification technology using the Panomics Discover XL Kit with assays performed according to the manufacturer's instructions. b-DNA probe sets containing capture extender, label extender, and blocking probes for human CYP1A2, CYP2B6, CYP3A4, and 18S rRNA were purchased from Affymetrix Inc. Plate washing steps were performed on an Elx405 automated microplate washer (BioTek Instruments Inc., Winooski, Vt.), and luminescence was analyzed on a Luminoskan Ascent microplate luminometer (Thermo Lab Systems, Helsinki, Finland). P450 mRNA levels were normalized to the mRNA levels of the housekeeping gene 18S rRNA.
(§3) Data Reporting. For each P450 isoform for mRNA analysis, fold increases over vehicle control (with vehicle control set to 1.0) were calculated for positive controls and each treatment group for the Example compounds.

CYP1A2, CYP2B6 or CYP3A4 = test: Human Hepatocyte CYP1A2, CYP2B6, and CYP3A4 Induction Assay (summary); format: in vitro ADME; settings: human hepatocytes, mRNA
Source text: as §1, §2
In vitro Methods. […] Individual lots were plated in collagen-coated 24-well plates with approximately 0.38×10^6 cells/well. […] After the attachment period, the plating medium and unattached cells were removed by aspiration and 37° C. HMM was added to each well (0.5 mL/well), and the cells were incubated overnight. On Day 2, the medium was aspirated and fresh 37° C. HMM was reapplied to the cells for an overnight acclimation period. […] The Example compounds to be tested were prepared in DMSO stock solutions resulting in final incubation concentrations of 0.1% DMSO. Example compound treatment was maintained for a total of 48 hours. […] P450 enzyme activities were subsequently determined by the addition of marker substrates phenacetin (100 μM, CYP1A2 probe substrate, 30-minute incubation) bupropion hydrochloride (100 μM, CYP2B6 probe substrate, 20-minute incubation), and testosterone (200 μM, CYP3A4 probe substrate, 14-minute incubation) which were dissolved in KHB (37° C., pH 7.4, 0.5 mL/well). After the substrate incubation periods, the buffers were collected and stored at −80° C. until analyzed. […]
as §3

hepatocyte CLint at 500 nM [1]	mRNA % of Positive Control (Donor One) (CYP3A4; 0.1 μM)	mRNA % of Positive Control (Donor Three) (CYP3A4; 0.1 μM)	mRNA % of Positive Control (Donor Two) (CYP3A4; 0.1 μM)	mRNA % of Positive Control (Donor One) (CYP3A4; 1 μM)	mRNA % of Positive Control (Donor Three) (CYP3A4; 1 μM)	mRNA % of Positive Control (Donor Two) (CYP3A4; 1 μM)	mRNA % of Positive Control (Donor One) (CYP3A4; 10 μM)	mRNA % of Positive Control (Donor Three) (CYP3A4; 10 μM)	mRNA % of Positive Control (Donor Two) (CYP3A4; 10 μM)	CYP3A4 mRNA induction (CYP3A4)	Induction Assay Summary (CYP1A2, CYP2B6 or CYP3A4)	Human hepatocyte CLint assay (μL/min/10^6 cells) ([2]; 500 nM, pooled human hepatocytes 1 million cells/mL)	mRNA % of Positive Control (one donor) (CYP3A4; 0.1 μM)	mRNA % of Positive Control (one donor) (CYP3A4; 1 μM)	mRNA % of Positive Control (one donor) (CYP3A4; 10 μM)	SMILES	human hepatocyte clearance (comparison) [2]
28 µL/min/1e6 cells	1.71%	0.15%	4.95%	17.15%	3.21%	10.38%	37.77%	37.60%	45.78%	exhibit CYP3A4 mRNA induction	CYP3A4	–	–	–	–	CC(C)(C)S(=O)(=O)C[C@H](C1CC1)N1C(=O)[C@@](C)(CC(=O)Nc2ccccc2)C[C@H](c2cccc(Cl)c2)[C@H]1c1ccc(Cl)cc1 [Example 3, 2-((3R,5R,6S)-1-((S)-2-(tert-Butylsulfonyl)-1-cyclopropylethyl)-5-(3-chlorophenyl)-6-(4-chlorophenyl)-3-methyl-2-oxopiperidin-3-yl)-N-phenylacetamide]	further increases
1.45 µL/min/1e6 cells	–	–	–	–	–	–	–	–	–	does not show CYP3A4 mRNA induction	None	1.45 μL/min/10^6 cells	−1.49%	0.34%	0.98%	COc1cc(NC(=O)C[C@@]2(C)C[C@H](c3cccc(Cl)c3)[C@@H](c3ccc(Cl)c(F)c3)N([C@H](CS(=O)(=O)C(C)(C)C)C3CC3)C2=O)ccc1C(=O)O [Example 5, 4-(2-((3R,5R,6S)-1-((S)-2-(tert-Butylsulfonyl)-1-cyclopropylethyl)-6-(4-chloro-3-fluorophenyl)-5-(3-chlorophenyl)-3-methyl-2-oxopiperidin-3-yl)acetamido)-2-methoxybenzoic acid]	lower human hepatocyte clearance than either of the compounds of Examples 1 or 4; also recorded: lower human hepatocyte clearance than any of Examples 1 to 4
26 µL/min/1e6 cells	–	–	–	–	–	–	–	–	–	–	–	–	–	–	–	CC(C)(C)S(=O)(=O)C[C@H](C1CC1)N1C(=O)[C@@](C)(CC(N)=O)C[C@H](c2cccc(Cl)c2)[C@H]1c1ccc(Cl)cc1 [Example 2, 2-((3R,5R,6S)-1-((S)-2-(tert-Butylsulfonyl)-1-cyclopropylethyl)-5-(3-chlorophenyl)-6-(4-chlorophenyl)-3-methyl-2-oxopiperidin-3-yl)acetamide]	hepatocyte clearance increases
26 µL/min/1e6 cells	1.62%	0.42%	2.30%	2.96%	0.47%	7.29%	10.14%	3.07%	12.51%	–	None	–	–	–	–	CC(C)(C)S(=O)(=O)C[C@H](C1CC1)N1C(=O)[C@@](C)(CC(=O)O)C[C@H](c2cccc(Cl)c2)[C@H]1c1ccc(Cl)c(F)c1 [Example 4, 2-((3R,5R,6S)-1-((S)-2-(tert-Butylsulfonyl)-1-cyclopropylethyl)-6-(4-chloro-3-fluorophenyl)-5-(3-chlorophenyl)-3-methyl-2-oxopiperidin-3-yl)acetic acid]	higher human hepatocyte clearance than the compound of Example 1
